# Data from patent publication US8110687B2, “Bicyclic compounds with kinase inhibitory activity” (Millennium Pharmaceuticals, Inc., priority 2005, dated 2012).
# System: phospho-ERK formation (Raf kinase activity) in A375 cells
# Assay: Phospho-ERK ELISA assay
# Type: cell-based
# Conditions: Homo sapiens, A-375, 3 h, 3 hours with inhibitor, read-out: IC50, inhibition of the formation of phospho-ERK
# Experimental: Inhibition of Raf kinase activity in whole cell systems can be assessed by determining the decrease in phosphorylation of Raf kinase substrates. Any known Raf kinase substrate can be used to measure inhibition of Raf kinase activity in a whole cell system.
# Medium was removed, and cells were incubated with Raf kinase inhibitors for 3 hours at 37° C. Medium was removed, and cells were fixed with 4% paraformaldehyde for 15 minutes at room temperature.
# Methanol was added for 15 min. Cells were removed and blocked with 10% sheep serum and 1% BSA in PBS overnight at 4° C. Cells were incubated with anti-p44/42MAPK antibody (1:100, Cell Signaling Technologies, #9101L) (20 μL/well) for one hour at room temperature. After washing with PBS three times, cells were stained with anti-rabbit horseradish peroxidase-linked antibody from donkey (1:100, Amersham Bioscience #NA934V) for 1 hour at room temperature. Cells were washed three times with 0.5% Tween-20 in PBS and twice with PBS. 3,3′, 5,5′-Tetramethylbenzidine (TMB) liquid substrate system (Sigma, #T8665) (50 μL/well) was added, and cells were incubated for 30-45 minutes at room temperature. Optical density was read at 650 nm. Cells were then washed 3-5 times with PBS to remove color solution. Results were normalized for the protein content in each well using a BCA protein assay kit (Pierce).
row,SMILES,IC50
1,"CNC(=O)c1cc(Oc2ccc3c(c2)CC(C(=O)Nc2cccc(C(C)(C)C)c2)CC3)ccn1 (stereo not shown) [Compound I-23, 4-[(7-{[(3-tert-butylphenyl)amino]carbonyl}-5,6,7,8-tetrahydronaphthalen-2-yl)oxy]-N-methylpyridine-2-carboxamide]",≤ 25 µM
2,"CNC(=O)c1cc(Oc2ccc3ncc(C(=O)Nc4ccc(CN)c(C(F)(F)F)c4)cc3c2)ccn1 [Compound I-161, N-[4-(aminomethyl)-3-(trifluoromethyl)phenyl]-6-({2-[(methylamino)carbonyl]pyridin-4-yl}oxy)quinoline-3-carboxamide]",≤ 25 µM
3,"CNC(=O)c1cc(Oc2ccc3c(c2)CC(NC(=O)c2ccc(Cl)c(C(F)(F)F)c2)CC3)ccn1 (stereo not shown) [Compound I-444, 4-[(7-{[4-chloro-3-(trifluoromethyl)benzoyl]amino}-5,6,7,8-tetrahydronaphthalen-2-yl)oxy]-N-methylpyridine-2-carboxamide]",≤ 25 µM
4,"NCc1cc(NC(=O)C2CCc3ccc(Oc4ccnc(-n5ccnc5)c4)cc3C2)cc(C(F)(F)F)c1 (stereo not shown) [Compound I-205, N-[3-(aminomethyl)-5-(trifluoromethyl)phenyl]-7-{[2-(1H-imidazol-1-yl)pyridin-4-yl]oxy}-1,2,3,4-tetrahydronaphthalene-2-carboxamide]",≤ 25 µM
5,"CC(=O)NCc1cc(Oc2ccc3c(c2)CC(C(=O)Nc2cc(CN)cc(C(F)(F)F)c2)CC3)ccn1 (stereo not shown) [Compound I-203, 7-({2-[(acetylamino)methyl]pyridin-4-yl}oxy)-N-[3-(aminomethyl)-5-(trifluoromethyl)phenyl]-1,2,3,4-tetrahydronaphthalene-2-carboxamide]",≤ 25 µM
6,"CNC(=O)c1cc(Oc2ccc3c(c2)CC(NC(=O)c2cccc(C(C)(C)C)c2)CC3)ccn1 (stereo not shown) [Compound I-460, 4-({7-[(3-tert-butylbenzoyl)amino]-5,6,7,8-tetrahydronaphthalen-2-yl}oxy)-N-methylpyridine-2-carboxamide]",≤ 25 µM
7,"COC(=O)NCc1cc(Oc2ccc3c(c2)CC(C(=O)Nc2cc(CN)cc(C(F)(F)F)c2)CC3)ccn1 (stereo not shown) [Compound I-192, methyl [(4-{[7-({[3-(aminomethyl)-5-(trifluoromethyl)phenyl]amino}carbonyl)-5,6,7,8-tetrahydronaphthalen-2-yl]oxy}pyridin-2-yl)methyl]carbamate]",≤ 25 µM
8,"CC(C)(C)c1cccc(NC(=O)C2CCc3ccc(Oc4ccnc(-c5nc(C(=O)O)c[nH]5)c4)cc3C2)c1 (stereo not shown) [Compound I-155, 2-{4-[(7-{[(3-tert-Butylphenyl)amino]carbonyl}-5,6,7,8-tetrahydronaphthalen-2-yl)oxy]pyridin-2-yl}-1H-imidazole-4-carboxylic acid]",≤ 25 µM
9,"CN1CCN(c2cc(Oc3ccc4c(c3)CC(C(=O)Nc3cccc(C(C)(C)C)c3)CC4)ccn2)CC1 (stereo not shown) [Compound I-415, N-(3-tert-butylphenyl)-7-{[2-(4-methylpiperazin-1-yl)pyridin-4-yl]oxy}-1,2,3,4-tetrahydronaphthalene-2-carboxamide]",≤ 25 µM
10,"CC(C)NC(=O)c1cc(Oc2ccc3c(c2)CC(C(=O)Nc2cc(CN)cc(C(F)(F)F)c2)CC3)ccn1 (stereo not shown) [Compound I-229, 4-{[7-({[3-(aminomethyl)-5-(trifluoromethyl)phenyl]amino}carbonyl)-5,6,7,8-tetrahydronaphthalen-2-yl]oxy}-N-isopropylpyridine-2-carboxamide]",≤ 25 µM
11,"O=C(Nc1ccc(Cl)c(C(F)(F)F)c1)c1ccc2ccc(Oc3ccnc(C4=NCCN4)c3)cc2n1 [Compound I-45, N-[4-chloro-3-(trifluoromethyl)phenyl]-7-{[2-(4,5-dihydro-1H-imidazol-2-yl)pyridin-4-yl]oxy}quinoline-2-carboxamide]",≤ 25 µM
12,"CC(C)(C)c1cccc(NC(=O)C2CCc3ccc(Oc4ccnc(NS(C)(=O)=O)c4)cc3C2)c1 (stereo not shown) [Compound I-254, N-(3-tert-butylphenyl)-7-({2-[(methylsulfonyl)amino]pyridin-4-yl}-oxy)-1,2,3,4-tetrahydronaphthalene-2-carboxamide]",≤ 25 µM

# Other lines, results leading:
row,IC50,SMILES
1,≤ 25 µM,"NCc1cc(NC(=O)C2CCc3ccc(Oc4ccnc(-c5cnco5)c4)cc3C2)cc(C(F)(F)F)c1 (stereo not shown) [Compound I-210, N-[3-(aminomethyl)-5-(trifluoromethyl)phenyl]-7-{[2-(1,3-oxazol-5-yl)pyridin-4-yl]oxy}-1,2,3,4-tetrahydronaphthalene-2-carboxamide]"
2,≤ 25 µM,"NCc1cc(NC(=O)C2CCc3ccc(Oc4ccnc(N)c4)cc3C2)cc(C(F)(F)F)c1 (stereo not shown) [Compound I-271, N-[3-(aminomethyl)-5-(trifluoromethyl)phenyl]-7-[(2-aminopyridin-4-yl)oxy]-1,2,3,4-tetrahydronaphthalene-2-carboxamide]"
3,≤ 25 µM,"O=C(Nc1cc(C(F)(F)F)ccc1OCCN1CCNCC1)C1CCc2ccc(Oc3ccnc(C4=NCCN4)c3)cc2C1 (stereo not shown) [Compound I-261, 7-{[2-(4,5-dihydro-1H-imidazol-2-yl)pyridin-4-yl]oxy}-N-[2-(2-piperazin-1-ylethoxy)-5-(trifluoromethyl)phenyl]-1,2,3,4-tetrahydronaphthalene-2-carboxamide]"
4,≤ 25 µM,"CN1Cc2ccc(Oc3ccnc(C4=NCCN4)c3)cc2CC1C(=O)Nc1ccc(Cl)c(C(F)(F)F)c1 (stereo not shown) [Compound I-11, N-[4-Chloro-3-(trifluoromethyl)phenyl]-6-{[2-(4,5-dihydro-1H-imidazol-2-yl)pyridin-4-yl]oxy}-2-methyl-1,2,3,4-tetrahydroisoquinoline-3-carboxamide]"
5,≤ 25 µM,"CC(C)(C)c1cccc(NC(=O)C2CCc3ccc(Oc4ccnc(C(=N)N5CCCC5)c4)cc3C2)c1 (stereo not shown) [Compound I-194, N-(3-tert-butylphenyl)-7-({2-[imino(pyrrolidin-1-yl)methyl]pyridin-4-yl}oxy)-1,2,3,4-tetraydronaphthalene-2-carboxamide]"
6,≤ 25 µM,"CNC(=O)c1cc(Oc2ccc3c(c2)CC(C(=O)Nc2ccc(CN)c(C(F)(F)F)c2)CC3)ccn1 (stereo not shown) [Compound I-28, 4-{[7-({[4-(aminomethyl)-3-(trifluoromethyl)phenyl]amino}carbonyl)-5,6,7,8-tetrahydronaphthalen-2-yl]oxy}-N-methylpyridine-2-carboxamide]"
7,≤ 25 µM,"CC(C)(C)c1cccc(NC(=O)c2ccc3ccc(Oc4ccnc(C5=NCCN5)c4)cc3n2)c1 [Compound I-50, N-(3-tert-butylphenyl)-7-{[2-(4,5-dihydro-1H-imidazol-2-yl)pyridin-4-yl]oxy}quinoline-2-carboxamide]"
